Literature values in patent publication US10954181B2, “Process for selectively recovering a phenolic compound from feedstock comprising bio-crude and/or bio-oil” (Research Triangle Institute, priority 2018, dated 2021).

Conditions: 25° C., in water; phenolic compounds present in biocrude

Row | Compound | pKa at 25° C. (in water)
1 | Cc1cccc(C)c1O [2,6-dimethylphenol] | 10.66
2 | COc1cc(CC(C)=O)ccc1O [Guaiacylacetone] | 9.88
3 | Cc1cc(C)c(O)cc1C [2,4,5-trimethylphenol] | 10.57
4 | COc1cc(CC(=O)O)ccc1O [Homovanillic acid] | 4.36
5 | CCCc1ccc(O)c(OC)c1 [Propylguaiacol (Dihydroeugenol), Propylguaiacol] | 10.29
6 | C=CCc1ccc(O)c(OC)c1 [Eugenol] | 10.19
7 | Benzenediol (catechol) | 9.96
8 | Cc1cccc(O)c1C [2,3-dimethylphenol] | 10.42
9 | Cc1ccc(O)c(C)c1 [2,4-dimethylphneol] | 10.6

The next lines start with the values.

Row | pKa at 25° C. (in water) | Compound
10 | 10.59 | C=CCc1cc(C)ccc1O [2-allyl-4-methylphenol]
11 | 10.27 | CCc1ccccc1O [2-ethylphenol]
12 | 9.98 | COc1ccccc1O [Guaiacol]
13 | 9.98 | CCCc1ccc(O)cc1 [4-propylphenol]
14 | 9.91 | Cc1ccc(O)c(O)c1 [4-methylcatechol]
15 | 10.88 | Cc1cc(C)c(O)c(C)c1 [2,4,6-trimethylphenol]
16 | 10.38 | Cc1cc(C)cc(O)c1 [3,5-dimethylphenol]
17 | 10.3 | CCc1ccc(O)c(OC)c1 [Ethylguaiacol]
18 | 9.9 | CCc1cccc(O)c1 [3-ethylphenol]
19 | 10.16 | O=C(CO)c1ccccc1 [Hydroxyacetophenone]

Same assay, conditions: Table 1, chemical information of targeted methoxyphenols

Row | pKa | Compound
20 | 9.98 | COc1ccccc1O [Guaiacol]
21 | 10.3 | CCc1ccc(O)c(OC)c1 [Ethylguaiacol]

Row | Compound | pKa
22 | CCCc1ccc(O)c(OC)c1 [Propylguaiacol (Dihydroeugenol), Propylguaiacol] | 10.29
